# Reference: patent publication US20130039857A1, “METHODS OF SUPPRESSING CANCER, INCREASING WEIGHT LOSS AND/OR INCREASING INSULIN SENSITIVITY” (priority 2010, published 2013)
# How the values were obtained:
# [1] = system: AMPK α subunit T172 phosphorylation; test: Western blot of phospho-T172 AMPK in white gastrocnemius; type: in vivo, mouse; settings: SU6656 4 mg/kg, 3 hr after injection, vs vehicle
# Experimental: (§1) Animals were injected with vehicle or SU6656 (4 mg/kg) at the beginning of the light cycle. They were anesthetized and sacrificed by cervical dislocation 3 hr after the injection. Tissues were rapidly freeze clamped in liquid nitrogen and stored at […]. Protein preparation and blotting were performed as described below. Tissues were ground in liquid nitrogen and homogenized in a buffer containing 50 mM Tris (pH 7.4), 1% glycerol, and 1% Triton X-100 supplemented with protease inhibitor (Complete Mini, Roche Pharmaceuticals, Nutley, N. J.). Homogenates were centrifuged for 30 min at 14,000 rpm at 4° C., and supernatants were collected. Protein concentration was determined with the BCA™ Protein Assay (Thermo Scientific, Rockford, Ill.).
# (§2) Protein samples (40 μg) were separated on 8% or 10% reducing polyacrylamide gels and transferred onto Immobilon-P polyvinylidene difluoride membranes. […] Alternatively, immunoblots were incubated with IRDye800CW goat antimouse (H+L) or IRDye680 goat anti-rabbit (H+L) secondary antibodies, and signal was detected with the Odyssey® Infrared Imaging System (Li-COR Biotechnology, Lincoln, Nebr.).
# Fyn kinase = Fyn kinase (Homo sapiens, UniProt P06241); design: dose or concentration left out as unconfirmed; settings: cited from earlier work
# [2] = system: LKB1 subcellular localization in C2C12 muscle cell line; test: GFP-LKB1 subcellular localization in C2C12 myotubes; type: cell-based; design: dose or concentration left out as unconfirmed; settings: C2C12 myotubes transfected with pEGFP-LKB1
# Experimental: FIGS. 4A-4F. Fyn Kinase Activity Regulates LKB1 Subcellular Distribution. (4A) C2C12 myotubes were transfected with pEGFP-LKB1 and incubated with vehicle or SU6656 ([…]) for 2 hr. Cells were fixed and mounted with proQ diamond with DAPI solution. (4B) Shown is percentage of cells with pEGFPLKB1 signal detected in the cytoplasm. (4C) C2C12 myotubes were cotransfected with pEGFP-LKB1 and pcDNA3-Fyn-KD or pcDNA3-Fyn-CA. Cells were fixed and incubated with the mouse Fyn monoclonal antibody. Immunofluorescence was performed using the Alexa Fluor 594 Anti-mouse IgG. (4D) Percentage of C2C12 cells with pEGFP-LKB1 signal detected in the cytoplasm. Data are representative of n=5 experiments. (4E) Fully differentiated 3T3L1 adipocytes were cotransfected with pcDNA3-LKB1 and pcDNA3-Fyn-KD or pcDNA3-Fyn-CA. […] (4F) Percentage of 3T3L1 cells with LKB1 signal detected in the cytoplasm. […]
# The ratio of cytosolic and nuclear LKB1 was quantified using the Image J software (National Institutes of Health). […]
# C2C12 myotubes were cotransfected with 50 μg pEGFP-C2-LKB1 or pcDNA3-Flag-LKB1 or pcDNA3-Flag-LKB1 mutants and 200 μg of the indicated pcDNA3-Fyn constructs. […] Cells were imaged using a confocal fluorescence microscope (TCS SP5 confocal; Leica Microsystems). […]
# [3] = Total body mass and magnetic resonance imaging (fat and lean mass), wild-type mice; type: in vivo, mouse
# Experimental: Total body mass (g) was recorded before (T=0) and 12 hr (T=12 hr) after the SU6656 injection. To determine fat and lean mass, animals were placed in a clear plastic holder without anesthesia or sedation and inserted into the EchoMRI-3-in-1™ System from Echo Medical Systems (Houston, Tex., USA). Total body fat and lean mass were measured before (T=0) and after (T=12 hr) after the injection.
# As mice generally consume 80% of their calories during the dark cycle and have a limited food intake during the light cycle, they undergo a diurnal pattern of weight gain and loss as shown by the decreased body mass at T=12 hr in the vehicle-treated mice. […] To determine whether the lowered RQ in the mice treated with SU6656 was directly due to increased skeletal muscle fatty acid oxidation, red soleus and white gastrocnemius muscles were isolated 3 hr following the vehicle or SU6656 injection and incubated with ^14C-palmitate. The oxidation of ^14C-palmitate to ^14CO2 was increased 25% and 33%, respectively, in the soleus and the gastrocnemius of the SU6656-treated mice relative to vehicle treated controls (FIGS. 3A and 3B). The SU6656-stimulated increase in fatty acid oxidation occurred concomitantly, with an approximate 3-fold increased AMPK α subunit T172 phosphorylation and increased ACC S79 (ACC1) and S221 (ACC2) phosphorylation levels (FIGS. 3C and 3D).
# [4] = system: ACC S79 (ACC1) and S221 (ACC2) phosphorylation; test: Western blot of phospho-ACC in white gastrocnemius; type: in vivo, mouse; settings: SU6656 4 mg/kg, 3 hr after injection, vs vehicle
# Experimental: as §1, §2
# Wild-type mice = test: Whole-body indirect calorimetry, wild-type mice; type: in vivo, mouse
# Excerpt: (§3) Eight- to ten-week-old male C57BL6/J, pp59^fyn null mice and their controls were obtained from The Jackson Laboratory (Bar Harbor, Me.) and housed in a facility equipped with a 12 hr light/dark cycle. Animals were fed ad libitum a standard chow diet (Research Diets, New Brunswick, N. J.) containing 75.9% (Kcal) carbohydrates, 14.7% protein, and 9.4% fat. All studies were approved by and performed in compliance with the guidelines of the Yeshiva University Institutional Animal Care and Use Committee (IACUC).
# (§4) Oxygen and carbon dioxide consumption were simultaneously determined by Oxymax open-circuit indirect calorimetry system (eight-cage system) (Columbus Instruments). Animals were allowed to acclimatize for two complete light and dark cycles (48 hr), and SU6656 (2-oxo-3-(4,5,6,7-tetrahydro-1H-indol-2-ylmethylene)-2,3-dihydro-1H-indole-5-sulfonic acid dimethylamide) injections were performed at the beginning of the light cycle the following day. Measurements were subsequently taken 12 hr following the injection. Data were analyzed as the average of 1 hr measurements for each mouse. Instrument settings were as follows: gas flow rate, 0.6 1/min; sample flow rate, 0.5 1/min; settle time, 120 s; measure time, 60 s.
# Loss of Fyn kinase protein in the conventional Fyn knockout mice leads to increased lipid utilization and energy expenditure, particularly in the fasting/resting state (Bastie et al., 2007). To examine the effects of acute Fyn inhibition, the in vivo effects of the pharmacological selective Src family kinase inhibitor SU6656 was investigated. Wild-type mice were placed into metabolic chambers and allowed to acclimatize for 48 hr. Intraperitoneal injection of SU6656 or vehicle was performed at the beginning of the light cycle (fasting/resting state), and the respiratory quotient (RQ), oxygen consumption (VO2), energy expenditure (EE), and physical activity were monitored for the following 12 hr. […] Oxygen consumption and energy expenditure were similar in both groups before the injection and were decreased during the light period as the animals were resting with reduced basal metabolism.
# Fyn knockout mice = test: Whole-body indirect calorimetry and body mass, Fyn knockout mice; type: in vivo, mouse
# Excerpt: as §3, §4
# To address this issue, the metabolic effect of SU6656 on wild type versus Fyn knockout mice was investigated. […]
# LKB1 = test: Endogenous LKB1 immunofluorescence in skeletal muscle in vivo; design: species or system mouse; settings: wild-type mice treated with SU6656
# [5] = system: red soleus and white gastrocnemius muscles; test: Fatty acid oxidation in isolated muscles (14C-palmitate to 14CO2); type: in vivo, mouse; settings: relative to vehicle treated controls
# Experimental: Animals received a single intraperitoneal injection of SU6656 or vehicle in the morning. Mice were sacrificed by cervical dislocation 3 hr after the injection. Skeletal muscles (red soleus and white gastrocnemius) were rapidly removed and preincubated for 10 min in oxygenated (95% O2, 5% CO2) Earle's solution (Invitrogen, Carlsbad, Calif.) supplemented with 5 mMD-glucose, 250 μM palmitate, and 0.5% BSA plus either 10 μM SU6656 or an equal volume of DMSO. Tissues were incubated for 45 min in the same buffer containing […] palmitate containing 1 μCi/ml [1-^14C] palmitate tracer (Amersham, Piscataway, N. J.) bound to 0.5% BSA. Incubations were carried out under an atmosphere of 95% O2/5% CO2 at 30° C. in glass vials (Kontes, Vineland, N.J.) equipped with a center well filled with 200 μl of 2N NaOH (trapping agent). At the end of the incubation, perchloric acid was added through the cap to a concentration of […], and vials were incubated for 3 hr at 30° C. with moderate shaking. The ^14CO2 produced was determined by scintillation counting of NaOH using the UniScintBD scintillation liquid (National Diagnostics, Atlanta, Ga.).
# As mice generally consume 80% of their calories during the dark cycle and have a limited food intake during the light cycle, they undergo a diurnal pattern of weight gain and loss as shown by the decreased body mass at T=12 hr in the vehicle-treated mice. […]
# [6] = SU6656 4 mg/kg intraperitoneal, light period, 12 hr following injection
# Sequence of Fyn kinase (P06241 1-534 isoform P06241-2): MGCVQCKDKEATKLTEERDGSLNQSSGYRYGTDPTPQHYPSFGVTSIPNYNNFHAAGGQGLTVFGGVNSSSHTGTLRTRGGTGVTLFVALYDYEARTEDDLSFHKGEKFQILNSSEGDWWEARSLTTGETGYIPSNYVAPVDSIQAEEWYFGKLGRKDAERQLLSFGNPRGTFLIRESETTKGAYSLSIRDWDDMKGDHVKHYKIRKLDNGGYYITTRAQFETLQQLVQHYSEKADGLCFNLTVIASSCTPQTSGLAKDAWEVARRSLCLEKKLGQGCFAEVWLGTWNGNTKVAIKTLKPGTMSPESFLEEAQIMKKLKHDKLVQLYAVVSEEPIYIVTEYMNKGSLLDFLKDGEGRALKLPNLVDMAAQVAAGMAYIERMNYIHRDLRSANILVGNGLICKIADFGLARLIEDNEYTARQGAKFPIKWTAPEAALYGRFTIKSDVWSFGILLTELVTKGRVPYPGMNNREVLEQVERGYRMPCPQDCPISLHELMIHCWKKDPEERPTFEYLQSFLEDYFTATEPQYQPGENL
smiles,measurement,setting,value
"CN(C)S(=O)(=O)c1ccc2c(c1)C(=Cc1cc3c([nH]1)CCCC3)C(=O)N2 [SU6656, 2-oxo-3-(4,5,6,7-tetrahydro-1H-indol-2-ylmethylene)-2,3-dihydro-1H-indole-5-sulfonic acid dimethylamide]",increased AMPK α subunit T172 phosphorylation,[1],~3 fold
same,Fyn kinase activity,Fyn kinase,sufficient to inactivate
same,cells with redistribution of LKB1 into the cytoplasm,[2],approximately 65%
same,total weight loss greater than vehicle-treated group,[3]; 12 hr after SU6656 injection,40%
same,fat mass,"[3]; T=12 hr, SU6656-treated vs vehicle-injected control animals",significantly reduced
same,lean mass,"[3]; T=12 hr, vehicle vs SU6656-injected mice",no significant difference
same,ACC S79 (ACC1) and S221 (ACC2) phosphorylation levels,[4],increased
same,decrease of respiratory quotient (RQ),"Wild-type mice; SU6656 4 mg/kg intraperitoneal at beginning of light cycle, vs vehicle, particularly first 3 hr after injection",more pronounced
same,energy expenditure (EE) elevation vs vehicle,Wild-type mice; [6],14%
same,oxygen consumption (VO2) elevation vs vehicle,Wild-type mice; [6],14%
same,physical activity,"Wild-type mice; SU6656 4 mg/kg, dark or light cycle",without any alteration
same,"respiratory quotient (RQ), wild-type controls of Fyn knockout mice","Wild-type mice; three-month-old wild-type mice, SU6656 vs vehicle, 12 hr following injection",lower RQ
same,body mass or physical activity in Fyn null mice,Fyn knockout mice; after SU6656 treatment,no alterations
same,rate of change or RQ level in Fyn knockout mice,"Fyn knockout mice; three-month-old Fyn knockout mice, SU6656 vs vehicle",no significant effect
same,LKB1 signal in the cytoplasm of muscle cells,LKB1,increased LKB1 signal
same,"increase in oxidation of 14C-palmitate to 14CO2, soleus",[5]; red soleus isolated 3 hr after injection,25%
same,"increase in oxidation of 14C-palmitate to 14CO2, gastrocnemius",[5]; white gastrocnemius isolated 3 hr after injection,33%
